Experimental data published in ChEMBL document CHEMBL3132767, “Validation of host factors of HIV integration as novel drug targets for anti-HIV therapy” (Medchemcomm, 2014).

Columns and labels:
[1] = test system: Human immunodeficiency virus 1; experiment: Inhibition of LEDGF/p75-HIV1 integrase interaction at 100 uM by Alphascreen assay
[2] = Selectivity index, ratio of CC50 for human MT4 cells to EC50 for HIV1 3B infected in human MT4 cells; type: toxicity, cell-based; conditions: MT4 cells (uninfected for CC50; HIV-1 3B infected for EC50)
[3] = test system: Human immunodeficiency virus 1; experiment: Antiviral activity against HIV1 3B infected in human MT4 cells assessed as inhibition of viral replication by MTT assay; type: functional, organism-based; conditions: Human immunodeficiency virus 1, 3B
[4] = Cytotoxicity against human MT4 cells by MTT assay; type: cell-based

inhibition [1]	Structure (SMILES)	selectivity ratio [2]	EC50 [3]	CC50 [4]
36%	Cn1c(=O)c(/C(=N/c2ccccc2)c2nnn[nH]2)c(O)c2ccccc21	–	–	–
–	CCCC(C(=O)O)c1cnc2sc(C)cc2c1-c1ccc(C)cc1 (stereo not drawn)	95	0.76 µM	72.2 µM
–	CCCC(C(=O)O)c1c(C)nc2ccc(Cl)cc2c1-c1ccccc1 (stereo not drawn)	25	2.35 µM	67.3 µM
–	C=CCC(C(=O)O)c1c(-c2ccccc2)c2cc(Cl)ccc2[nH]c1=O (stereo not drawn)	6	12.4 µM	67.3 µM
–	O=C(O)Cc1c(-c2ccccc2)c2cc(Cl)ccc2[nH]c1=O	> 3	41.9 µM	> 150 µM
–	CCCC(C(=O)O)c1c(-c2ccccc2)c2cc(Cl)ccc2n(CCC)c1=O (stereo not drawn)	6	10.8 µM	64.4 µM
–	Cc1ccc(-c2c(C(OC(C)(C)C)C(=O)O)cnc3sc(C)cc23)cc1 (stereo not drawn)	1390	–	96 µM
